Data from paper PMC9863987, “Identification of Aryl Polyamines Derivatives as Anti-Trypanosoma cruzi Agents Targeting Iron Superoxide Dismutase” (Pharmaceutics, 2022).
Counter-ions that a name gives are not always drawn.

Key:
[1] = test system: T. cruzi Arequipa strain epimastigotes; test: Screening against extracellular epimastigotes, Arequipa strain (resazurin); format: cell-based, Trypanosoma cruzi; conditions: for IC50: Trypanosoma cruzi, epimastigotes, 48 h treatment + 24 h resazurin, mean of three ± SD, read-out: Activity IC50 T. cruzi Arequipa Strain E; for Selectivity Index T. cruzi Arequipa Strain E: IC50 Vero cells/IC50 epimastigotes
Description: (§1) Three different T. cruzi […] strains—MHOM/Pe/2011/Arequipa, discrete typing unit (DTU) V [26]; IRHOD/CO/2008/SN3, DTU I [27]; TINF/CH/1956/Tulahuen, DTU VI [26]—were grown at 28 °C in Gibco® RPMI 1640 Medium supplemented as previously reported, and used for in vitro screening.
(§2) Trypanocidal activity against epimastigotes was tested as previously reported. In brief, 5 × 10^5 mL^−1 epimastigotes culture medium were treated by adding the compounds in serial dilutions from 100 to 0.2 µM in 96-well plates (200 µL·well^−1) for 48 h. BZN and untreated growth control were also included in triplicate. Later, 20 μL of resazurin sodium salt (Sigma-Aldrich, St. Louis, MO, USA) was added, and the plates were incubated for another 24 h. Finally, the absorbance of the wells was measured at 570/600 nm and related to the control. The trypanocidal activity was expressed as the IC50 (inhibitory concentration 50) value using GraphPad Prism 6 software.

[2] = test system: Vero cells; test: Cytotoxicity test on mammalian Vero cells (resazurin); format: cell-based; conditions: Chlorocebus sabaeus, 48 h treatment + 24 h resazurin, mean of three ± SD, read-out: Toxicity IC50 Vero Cell
Description: Cytotoxicity against mammalian Vero cells (EACC No. 84113001) was tested as previously reported. In brief, 1.25 × 10^4 Vero cells·mL^−1, cultured at 37 °C, were treated by adding the compounds in serial dilutions from 400 to 1 µM in 96-well plates (200 µL·well^−1) for 48 h. BZN and untreated controls were also included in triplicate. Later, 20 μL of resazurin sodium salt (Sigma-Aldrich) was added, and the plates were incubated for another 24 h. Finally, cell viability was determined following the same procedure as described to assess the trypanocidal activity in the epimastigotes.

[3] = test system: T. cruzi SN3 strain epimastigotes; test: Screening against extracellular epimastigotes, SN3 strain (resazurin); format: cell-based, Trypanosoma cruzi; conditions: for IC50: Trypanosoma cruzi, epimastigotes, 48 h treatment + 24 h resazurin, mean of three ± SD, read-out: Activity IC50 T. cruzi SN3 Strain E; for Selectivity Index T. cruzi SN3 Strain E: IC50 Vero cells/IC50 epimastigotes
Description: as §1, §2

[4] = test system: T. cruzi Tulahuen strain epimastigotes; test: Screening against extracellular epimastigotes, Tulahuen strain (resazurin); format: cell-based, Trypanosoma cruzi; conditions: for IC50: Trypanosoma cruzi, TULAHUEN, epimastigotes, 48 h treatment + 24 h resazurin, mean of three ± SD, read-out: Activity IC50 T. cruzi Tulahuen Strain E; for Selectivity Index T. cruzi Tulahuen Strain E: IC50 Vero cells/IC50 epimastigotes
Description: as §1, §2

[5] = test system: T. cruzi Tulahuen strain trypomastigotes; test: Screening against bloodstream trypomastigotes, Tulahuen strain (resazurin); format: cell-based, Trypanosoma cruzi
[6] = test system: T. cruzi Tulahuen strain amastigotes; test: Screening against intracellular amastigotes in Vero cells, Tulahuen strain (Giemsa counting); format: cell-based, Trypanosoma cruzi
Description: (§3) TINF/CH/1956/Tulahuen, DTU VI [26]—were grown at 28 °C in Gibco® RPMI 1640 Medium supplemented as previously reported, and used for in vitro screening. Trypanocidal activity against amastigotes was tested as previously reported. In brief, bloodstream trypomastigotes (BTs), obtained by cardiac puncture from infected BALB/c mice, were used to infect 1 × 10^4 Vero cells·well^−1 in 24-well plates with rounded coverslips at a multiplicity of infection (MOI) ratio of 10:1. After 24 h of infection, non-internalized trypomastigotes were washed and the infected cells were treated by adding the compounds in serial dilutions from 50 to 0.5 µM in […] for 72 h. BZN and untreated growth controls were also included in triplicate. Later, the number of amastigotes and infected cells were determined in Giemsa stained preparations by analysing 500 host cells randomly distributed in microscopic fields. The trypanocidal activity was expressed as the IC50 using GraphPad Prism 6 software (version 6.07).

[7] = test system: T. cruzi Arequipa strain trypomastigotes; test: Screening against bloodstream trypomastigotes, Arequipa strain (resazurin); format: cell-based, Trypanosoma cruzi
[8] = test system: T. cruzi Arequipa strain amastigotes; test: Screening against intracellular amastigotes in Vero cells, Arequipa strain (Giemsa counting); format: cell-based, Trypanosoma cruzi
Description: as §3

[9] = IC50 Vero cells/IC50 trypomastigotes
[10] = IC50 Vero cells/IC50 amastigotes

Compound | IC50 [1] [µM] | IC50 [3] [µM] | IC50 [4] [µM] | CC50 [2] [µM] | further results
c1ccc2cc(CN(CCNCc3ccnc4ccccc34)CCNCc3ccnc4ccccc34)ccc2c1 [Compound 4, 1,7-Bis(4-quinolylmethyl)-4-(2-naphthylmethyl)-1,4,7-triazaheptane Pentahydrochloride] | 25.2 ± 2.7 | 11 ± 1 | 22.6 ± 3.3 | 5.3 ± 0.4 | –
O=C(NCCN(CCNC(=O)c1ccccn1)Cc1ccc2ccccc2c1)c1ccccn1 [Compound 6] | 12 ± 1.1 | 10 ± 1.2 | 16.1 ± 1.7 | 63.2 ± 5.7 | –
CN(C)c1cccc2c(S(=O)(=O)N(CCNCc3cccnc3)CCNCc3cccnc3)cccc12 [Compound 8] | 48.1 ± 3.9 | 36.4 ± 3.4 | 10 ± 1.1 | 136 ± 14.8 | Selectivity Index T. cruzi Tulahuen Strain T [5, 9]: 11.2; IC50 ([5]; Trypanosoma cruzi, TULAHUEN, trypomastigotes, 24 h + 4 h resazurin, mean of three ± SD): 12.2 ± 1.2 µM; Selectivity Index T. cruzi Tulahuen Strain A [6, 10]: 8.0; IC50 ([6]; Trypanosoma cruzi, TULAHUEN, amastigotes in Vero cells, 72 h, mean of three ± SD): 17 ± 1.5 µM; Selectivity Index T. cruzi Arequipa Strain E [1]: 2.8; Selectivity Index T. cruzi SN3 Strain E [3]: 3.7; Selectivity Index T. cruzi Tulahuen Strain E [4]: 13.7
c1cncc(CNCCN(CCNCc2cccnc2)Cc2ccc3ccccc3c2)c1 [Compound 2] | 2.9 ± 0.3 | 5.7 ± 0.5 | 15.8 ± 1.4 | 38.5 ± 4.1 | Selectivity Index T. cruzi Arequipa Strain E [1]: 13.5; Selectivity Index T. cruzi Arequipa Strain T [7, 9]: 8.0; IC50 ([7]; Trypanosoma cruzi, trypomastigotes, 24 h + 4 h resazurin, mean of three ± SD): 4.8 ± 0.5 µM; Selectivity Index T. cruzi SN3 Strain E [3]: 6.7; Selectivity Index T. cruzi Tulahuen Strain E [4]: 2.4; Selectivity Index T. cruzi Arequipa Strain A [8, 10]: 6.2; IC50 ([8]; Trypanosoma cruzi, amastigotes in Vero cells, 72 h, mean of three ± SD): 6.2 ± 0.6 µM
c1ccc2cc(CN(CCNCc3ccncc3)CCNCc3ccncc3)ccc2c1 [Compound 3] | 18.7 ± 1.6 | 21.8 ± 1.9 | 19.2 ± 1.7 | 25.8 ± 2.7 | –
c1cc2nc(c1)CNCCN(CCNCc1ccc3[nH]ncc3c1)CCNC2 [Compound 14] | 18.3 ± 1.4 | 25.8 ± 2.7 | 22.4 ± 2.1 | 60.3 ± 7 | –
c1cc(CNCCN2CCNCc3cccc(n3)CNCC2)nc(CNCCN2CCNCc3cccc(n3)CNCC2)c1 [Compound 16] | 102 ± 9.8 | 155 ± 14.9 | 129 ± 14.7 | 136 ± 14.7 | –
CN(C)c1cccc2c(S(=O)(=O)N(CCNC(=O)c3ccccn3)CCNC(=O)c3ccccn3)cccc12 [Compound 9] | 12.4 ± 1.2 | 59.6 ± 6.2 | 39.3 ± 4.2 | 49.3 ± 5 | –

Further lines, with some results ahead:

IC50 [1] [µM] | IC50 [3] [µM] | IC50 [4] [µM] | Compound | CC50 [2] [µM] | further results
28.3 ± 2.4 | 27.1 ± 2.1 | 26 ± 2.7 | c1ccc(CNCCN(CCNCc2ccccn2)Cc2ccc3ccccc3c2)nc1 [Compound 1] | 58.1 ± 6 | –
12.8 ± 1.7 | 21.4 ± 2 | 30 ± 2.7 | CN(CCNCc1ccccn1)CCNCc1ccccn1 [Compound 11] | 23.3 ± 2.1 | –
12.7 ± 1.4 | 5.5 ± 4.9 | 21 ± 1.8 | O=S(=O)(c1cccc2cccnc12)N(CCNCc1ccccn1)CCNCc1ccccn1 [Compound 13] | 28.3 ± 2.4 | –
104 ± 12.8 | 87.5 ± 9 | 95.2 ± 8.4 | CN(CCNCc1ccncc1)CCNCc1ccncc1 [Compound 12] | 188 ± 20.4 | –
15.2 ± 1.8 | 14.3 ± 1.8 | 12.9 ± 1.8 | O=S(=O)(c1cccc2ccccc12)N(CCNCc1ccccn1)CCNCc1ccccn1 [Compound 10] | 14.9 ± 1.3 | –
11.5 ± 1.1 | 10.4 ± 1.1 | 12.1 ± 1.1 | CN(C)c1cccc2c(S(=O)(=O)N(CCNCc3ccccn3)CCNCc3ccccn3)cccc12 [Compound 7] | 41.3 ± 3.7 | –
